Reference: US5502068A, “Cyclopropylpyrroloindole-oligopeptide anticancer agents” (Synphar Laboratories, Inc., priority 1995, dated 1996)
≈ marks a conversion by molar mass, not a printed value. Entries after “also recorded” stand apart in the source; their conditions may differ. Read-outs that look alike come from different tables or passages of the source.

What was measured:
[1] = test system: KB human nasopharyngeal carcinoma cells; experiment: Cytotoxicity (antiproliferative effect), crystal violet staining; format: cell-based; settings: for IC50: Homo sapiens, KB, 72 h
Procedure: KB human nasopharyngeal carcinoma cells, were maintained in RPMI 1640 medium supplemented with 10% fetal bovine serum. KB cells were cultured in plastic tissue culture flasks and kept in an incubator at 37° C. in humidified air containing 5% CO2. These cells were free of Mycoplasma as determined with Hoechst 33258 stain.
The antiproliferative effect of compounds was determined using cell staining method by crystal violet.
One hundred-μ1 cultures were established at 10^3 cells/well in 96-well tissue culture plates (Nunc, Roskilde, Denmark). After 24 h. 100 µl of the medium containing 2 times concentrated the compounds were added to the cell culture. After an additional 3 days culture, cells were fixed to 20 µl of 25% glutaraldehyde for 15 minutes and washed with water, dried and stained with 0.05% crystal violet in 20% methanol for 15 minutes. After washing with water and drying, crystal violet was extracted with 100 µl of 50 mM NaH2 PO4 /ethanol (1:1 v/v) and OD540 was measured by the multiscanphotometer (Corona, Tokyo, Japan). A linear relationship between cell number and the amount of dye binding was found over the range of cell densities observed all experiments.

[2] = test system: DNA; settings: in words, cited from earlier work
[3] = test system: DNA; experiment: Site and sequence selective DNA alkylation by polyacrylamide gel electrophoresis (PAGE); format: biochemical; settings: for Alkylation Intensity at AATA*: site AATA*; for Alkylation Intensity at ATAA*: site ATAA*; for Alkylation Intensity at CTTA: site CTTA; for Alkylation Intensity at GAAA: site GAAA; for Alkylation Intensity at GATA*: site GATA*; for Alkylation Intensity at GTTA: site GTTA; for Alkylation Intensity at TATA: site TATA; for Alkylation Intensity at TTAA*: site TTAA*; for Alkylation Intensity at TTTA: site TTTA
Text: In contrast to FCE 24517, clear evidence of site and sequence selective DNA alkylation was obtained for the new CPI-oligopeptides by polyacrylamide gel electrophoresis (PAGE). […] Table 5 quantifies and compares the alkylation intensities at different sites for the CPI-oligopeptides with CC-1065. […] A detailed analysis of the frequency of occurrence of bases flanking the prominent alkylation sites for YW-052 and YW-053 compared with CC-1065 is given in Table 7.

[4] = test system: P388 lymphocytic leukemia cells; experiment: Antitumor efficacy, i.p. P388 lymphocytic leukemia in CDF1 mice; format: in vivo, mouse; settings: for In vivo ILS P388 (ip): maximum ILS
Procedure: All compounds were dissolved in dimethyl sulfoxide (DMSO), diluted in sterile 0.9% NaCl solution to 5% final DMSO concentration. BALB/c X DBA/2F1 (CDF1) mice were purchased from Japan CLEA. P388 lymphocytic leukemia cells were inoculated intraperitoneally (10^6 cells) 1 day prior to treatment into 6 week-old male CDF1 mice, and compounds were injected intraperitoneally in a total volume of 0.1 ml/10g mouse body weight. Efficacy for these models was expressed as the Increase in life span (ILS) of treated mice in comparison to untreated tumor-bearing mice. Experiment was completed on day 30 after tumor inoculation, and survivor on that day was evaluated as cured animal. Time to death (mean±SD.n=9) for untreated animals was 11.5±1.2 day and for solvent treated animals was 11.7±2.1 day.

[5] = test system: herpes viruses; settings: cited from earlier work
[6] = in words; cited from earlier work
[7] = Table 1, KB cells, 3 days, read-out: KB cells, toxicity TD50
[8] = Table 2, KB cells, 3 days, read-out: KB cells, toxicity TD50
[9] = Table 3, KB cells, 3 days, read-out: KB cells, toxicity TD50
[10] = Table 4, KB cell, read-out: Cytotoxicity IC50 (KB cell)

Compound `COc1cccc2c1C(=O)c1c(O)c3c(c(O)c1C2=O)C[C@@](O)(C(=O)CO)C[C@@H]3O[C@H]1C[C@H](N)[C@H](O)[C@H](C)O1` [Adriamycin, reference compound] has an IC50 [1, 7] of 11 ng/mL (≈ 20.2 nM), an IC50 [1, 8] of 5 ng/mL (≈ 9.2 nM) and an IC50 [1, 9] of 4.4 ng/mL (≈ 8.1 nM).
In the case of `Cn1cc(NC(=O)c2cc(NC(=O)c3cc(NC(=O)c4ccc(N(CCCl)CCCl)cc4)cn3C)cn2C)cc1C(=O)NCCC(=N)N` [FCE 24517], the DNA alkylation ([2]; Arcamone et al., 1989) is listed as “shows no evidence of DNA alkylation” and the DNA sequence recognition [2] is listed as “strictly AT recognizing; also recorded: strictly limited AATT recognition”.
`CC(=O)Nc1cc(C(=O)N2CC3CC34C2=CC(=O)c2[nH]cc(C)c24)n(C)c1` (stereo not drawn) [YW-031] gave an IC50 [1, 7] of 0.0324 ng/mL (≈ 0.0889 nM).
For `Cc1c[nH]c2c1C13CC1CN(C(=O)c1cccn1C)C3=CC2=O` (stereo not drawn) [YW-032], the IC50 [1, 7] was 38 ng/mL (≈ 124 nM), the “Alkylation Intensity at AATA*” value [3] was 1.35 and the “Alkylation Intensity at ATAA*” value ([3]; first column of Table 5) was “.88”. The “Alkylation Intensity at ATAA*” value ([3]; third column of Table 5) was 1.01, the “Alkylation Intensity at CTTA” value [3] was “.61” and the “Alkylation Intensity at GAAA” value [3] was “.79”. The “Alkylation Intensity at GATA*” value [3] was 1.35, the “Alkylation Intensity at GTTA” value [3] was 1.03 and the “Alkylation Intensity at TATA” value [3] was 1.05. The “Alkylation Intensity at TTAA*” value [3] was “.71” and the “Alkylation Intensity at TTTA” value [3] was “.63”.
For `Cc1c[nH]c2c1C13CC1CN(C(=O)CCc1cccn1C)C3=CC2=O` (stereo not drawn) [YW-033], the IC50 [1, 7] was 263 ng/mL (≈ 784 nM), the “Alkylation Intensity at AATA*” value [3] was 1.42 and the “Alkylation Intensity at ATAA*” value ([3]; first column of Table 5) was “.95”. The “Alkylation Intensity at ATAA*” value ([3]; third column of Table 5) was 1.11, the “Alkylation Intensity at CTTA” value [3] was “.68” and the “Alkylation Intensity at GAAA” value [3] was “.84”. For the same compound, the “Alkylation Intensity at GATA*” value [3] was 1.41, the “Alkylation Intensity at GTTA” value [3] was 1.27 and the “Alkylation Intensity at TATA” value [3] was 1.40. For the same compound, the “Alkylation Intensity at TTAA*” value [3] was “.84” and the “Alkylation Intensity at TTTA” value [3] was “.97”.
For `Cc1c[nH]c2c1C13CC1CN(C(=O)C=Cc1cccn1C)C3=CC2=O` (stereo not drawn) [YW-034], the IC50 [1, 7] was 0.275 ng/mL (≈ 0.825 nM), the IC50 [1, 10] was 0.27 ng/mL (≈ 0.81 nM) and the “In vivo ILS P388 (ip)” value ([4]; 1 mg/kg ip) was 37.9%. For the same compound, the “Alkylation Intensity at AATA*” value [3] was 1.30, the “Alkylation Intensity at ATAA*” value ([3]; first column of Table 5) was “.71” and the “Alkylation Intensity at ATAA*” value ([3]; third column of Table 5) was “.84”. For the same compound, the “Alkylation Intensity at CTTA” value [3] was “.44”, the “Alkylation Intensity at GAAA” value [3] was “.55” and the “Alkylation Intensity at GATA*” value [3] was 1.09. For the same compound, the “Alkylation Intensity at GTTA” value [3] was “.73”, the “Alkylation Intensity at TATA” value [3] was “.77” and the “Alkylation Intensity at TTAA*” value [3] was “.52”. For the same compound, the “Alkylation Intensity at TTTA” value [3] was “.49”.
With `CCC(=O)Nc1cc(C(=O)N2CC3CC34C2=CC(=O)c2[nH]cc(C)c24)n(C)c1` (stereo not drawn) [YW-035] the IC50 [1, 10] was 1 ng/mL (≈ 2.64 nM) and the “In vivo ILS P388 (ip)” value ([4]; 0.1 mg/kg ip) was 56.5%.
In the case of `CCCC(=O)Nc1cc(C(=O)N2CC3CC34C2=CC(=O)c2[nH]cc(C)c24)n(C)c1` (stereo not drawn) [YW-036], the IC50 [1, 10] is reported as 0.47 ng/mL (≈ 1.2 nM), the “In vivo ILS P388 (ip)” value ([4]; 0.3 mg/kg ip, 30 day survivors not included) is reported as 24.6% and the cure ([4]; 0.3 mg/kg ip, survivors on day 30 evaluated as cured) is reported as 1/7.
In the case of `CCCC(=O)Nc1cc(C(=O)Nc2cc(C=CC(=O)N3CC4CC45C3=CC(=O)c3[nH]cc(C)c35)n(C)c2)n(C)c1` (stereo not drawn) [YW-053], the “Frequency of Occurrence, base A at +1” value ([3]; A, position +1) is reported as 27%, the “Frequency of Occurrence, base A at +2” value ([3]; A, position +2) is reported as 27% and the “Frequency of Occurrence, base A at +3” value ([3]; A, position +3) is reported as 27%. The “Frequency of Occurrence, base A at -1” value ([3]; A, position -1) was 36%, the “Frequency of Occurrence, base A at -2” value ([3]; A, position -2) was 45% and the “Frequency of Occurrence, base A at -3” value ([3]; A, position -3) was 36%. For the same compound, the “Frequency of Occurrence, A/T at +1” value ([3]; A/T, position +1) was 82%, the “Frequency of Occurrence, A/T at +2” value ([3]; A/T, position +2) was 54% and the “Frequency of Occurrence, A/T at +3” value ([3]; A/T, position +3) was 54%. The “Frequency of Occurrence, A/T at -1” value ([3]; A/T, position -1) was 100%, the “Frequency of Occurrence, A/T at -2” value ([3]; A/T, position -2) was 100% and the “Frequency of Occurrence, A/T at -3” value ([3]; A/T, position -3) was 63%. The “Frequency of Occurrence, base C at +2” value ([3]; C, position +2) was 9%, the “Frequency of Occurrence, base C at +3” value ([3]; C, position +3) was 9% and the “Frequency of Occurrence, base C at -3” value ([3]; C, position -3) was 10%. The “Frequency of Occurrence, base G at +1” value ([3]; G, position +1) was 28%, the “Frequency of Occurrence, base G at +2” value ([3]; G, position +2) was 37% and the “Frequency of Occurrence, base G at +3” value ([3]; G, position +3) was 37%. For the same compound, the “Frequency of Occurrence, base G at -3” value ([3]; G, position -3) was 27%, the “Frequency of Occurrence, base T at +1” value ([3]; T, position +1) was 45% and the “Frequency of Occurrence, base T at +2” value ([3]; T, position +2) was 27%. The “Frequency of Occurrence, base T at +3” value ([3]; T, position +3) was 27%, the “Frequency of Occurrence, base T at -1” value ([3]; T, position -1) was 64% and the “Frequency of Occurrence, base T at -2” value ([3]; T, position -2) was 55%. The “Frequency of Occurrence, base T at -3” value ([3]; T, position -3) was 27%, the “Frequency of Occurrence, A* (site of alkylation)” value ([3]; alkylated base A*) was 91% and the “Frequency of Occurrence, G* (site of alkylation)” value ([3]; alkylated base G*) was 9%. The “Alkylation Sites (5'-3'), Moderate” value ([3]; moderate sites, listed as YW-53) was “TTAA, AATG, GATA; also recorded: ATAA, CTTA, GAAA” and the “Alkylation Sites (5'-3'), Strong” value ([3]; strong sites, listed as YW-53) was “TTTA, TATA, GTTA; also recorded: AATA, ATAA”.
For `CC(=O)Nc1cc(C=CC(=O)N2CC3CC34C2=CC(=O)c2[nH]cc(C)c24)n(C)c1` (stereo not drawn) [YW-059], the IC50 [1, 8] was 0.00015 ng/mL (≈ 0.000384 nM) and the “cytotoxic potency / anticancer activity in vitro” value ([1]; human tumor KB cell line, in words) was “exceeding in the case of YW-059, for example, that of any other reported natural or synthetic agents; also recorded: cytotoxic potency exceeds that of any other agent, natural or synthetic, reported to date”.
For `Cc1c[nH]c2c1C13CC1CN(C(=O)c1cc(NC(=O)CCN(C)C)cn1C)C3=CC2=O` (stereo not drawn) [YW-60], the IC50 [1, 9] was 184 ng/mL (≈ 437 nM).
Work on `Cc1c[nH]c2c1C13CC1CN(C(=O)c1cc(NC(=O)c4cc(NC(=O)CCN(C)C)cn4C)cn1C)C3=CC2=O` (stereo not drawn) [YW-61] yielded an IC50 [1, 9] of 2490 ng/mL (≈ 4580 nM).
`Cc1c[nH]c2c1C13CC1CN(C(=O)c1cc(NC(=O)c4cc(NC(=O)c5cc(NC(=O)CCN(C)C)cn5C)cn4C)cn1C)C3=CC2=O` (stereo not drawn) [YW-62] showed an IC50 [1, 9] of 1370 ng/mL (≈ 2060 nM).
`Cc1c[nH]c2c1C13CC1CN(C(=O)c1nc(NC(=O)CCN(C)C)cn1C)C3=CC2=O` (stereo not drawn) [YW-63] showed an IC50 [1, 9] of 385 ng/mL (≈ 911 nM).
In the case of `Cc1c[nH]c2c1C13CC1CN(C(=O)c1nc(NC(=O)c4nc(NC(=O)CCN(C)C)cn4C)cn1C)C3=CC2=O` (stereo not drawn) [YW-64], the IC50 [1, 9] is reported as 2520 ng/mL (≈ 4620 nM).
In the case of `Cn1cc(NC(=O)c2cc(NC(=O)c3cc(NC=O)cn3C)cn2C)cc1C(=O)NCCC(=N)N` [distamycin], the therapeutic index [5] is given as “about 3” and the cytotoxicity [6] is given as “high cytotoxicity”.
